In EP4813993A1, “COMPOUND, PREPARATION METHOD THEREFOR, AND USE THEREOF” (Sichuan Kelun Pharmaceutical Research Institute Co., Ltd., priority 2023, dated 2025) one finds inhibition, Inhibition rate (%) and IC50 data, which are given here for 22 molecules.

The test deals with T1, Nav1.8 channels (Homo sapiens, UniProt Q9Y5Y9).
T1 construct: expressed in transfected cells
Put plainly: Manual patch-clamp, current of stably overexpressed Nav1.8 channels (resting state voltage program). It is filed as cell-based. The conditions noted are these: for inhibition at 0.001 µM / inhibition at 0.01 µM: read-out: Inhibition rate %; for inhibition at 0.01 µM: concentration of 10 nM. As for the experimental part: Experimental Example 1: Effects of test substances on current of stably overexpressed Nav1.8 channels monitored via manual patch-clamp technique
Test compounds were dissolved in dimethyl sulfoxide (DMSO).
The extracellular fluid was as follows: 140 mM NaCl, 3.5 mM KCl, 1 mM MgCl2•6H2O, 2 mM CaCl2•2H2O, 10 mM D-Glucose, 10 mM HEPES, 1.25 mM NaH2PO4•2H2O; the pH was adjusted to 7.4 with NaOH. The intracellular fluid was as follows: 50 mM CsCl, 10 mM NaCl, 10 mM HEPES, 60 mM CsF, 20 mM EGTA; the pH was adjusted to 7.2 with CsOH.
2. Experimental materials and instruments
• 1) patch-clamp amplifier: EPC 10 (HEKA) • 2) micromanipulator: MP225 (Sutter Instrument) • 3) inverted microscope: MF53 (Mshot) • 4) micropipette puller: P97 (Sutter Instrument) • 5) capillary glass tube: BF150-86-10 (Sutter Instrument)
3. Experimental procedures
• 1) After the compounds were prepared into solutions with specified concentrations, the solutions were sequentially added to the pipeline of the drug delivery system and labeled. • 2) The cell climbing coverslip was placed in the recording chamber, the appropriate cells were selected under the inverted microscope, and the position of the drug delivery tip was adjusted. • 3) A capillary glass tube was pulled into a suitable recording electrode using the micropipette puller, and then the electrode filled with the intracellular fluid was mounted in the microelectrode holder. The micromanipulator was adjusted under the inverted microscope to allow the recording electrode to contact the cell, and negative pressure was applied to the electrode to form a high-resistance seal. At this time, fast capacitance compensation was performed, and then the application of negative pressure was continued to break the cell membrane, forming a whole-cell recording mode. Finally, slow capacitance compensation was performed, and related parameters were recorded. • 4) After the cell current stabilized, administration was started. Each concentration of the drug was applied for five minutes or until the current stabilized before proceeding to monitor the next concentration. The drug solutions were administered via gravity-fed delivery, flowing through the recording chamber to act on the cells in an ascending order of concentration (from low to high). A peristaltic pump was employed for solution exchange in the recording process.
4 Test voltage program (resting state) and results
After the formation of the whole-cell seal, the cell voltage was clamped at -120 mV, followed by depolarization to 0 mV using a square-wave pulse with a duration of 50 ms to elicit Nav1.8 currents. This procedure was repeated every 20 s to monitor the maximum current induced by the square wave. After the current stabilized, the test compounds were administered. Once the response stabilized, the intensity of the current block was calculated.

T1 sequence (Q9Y5Y9 whole entry): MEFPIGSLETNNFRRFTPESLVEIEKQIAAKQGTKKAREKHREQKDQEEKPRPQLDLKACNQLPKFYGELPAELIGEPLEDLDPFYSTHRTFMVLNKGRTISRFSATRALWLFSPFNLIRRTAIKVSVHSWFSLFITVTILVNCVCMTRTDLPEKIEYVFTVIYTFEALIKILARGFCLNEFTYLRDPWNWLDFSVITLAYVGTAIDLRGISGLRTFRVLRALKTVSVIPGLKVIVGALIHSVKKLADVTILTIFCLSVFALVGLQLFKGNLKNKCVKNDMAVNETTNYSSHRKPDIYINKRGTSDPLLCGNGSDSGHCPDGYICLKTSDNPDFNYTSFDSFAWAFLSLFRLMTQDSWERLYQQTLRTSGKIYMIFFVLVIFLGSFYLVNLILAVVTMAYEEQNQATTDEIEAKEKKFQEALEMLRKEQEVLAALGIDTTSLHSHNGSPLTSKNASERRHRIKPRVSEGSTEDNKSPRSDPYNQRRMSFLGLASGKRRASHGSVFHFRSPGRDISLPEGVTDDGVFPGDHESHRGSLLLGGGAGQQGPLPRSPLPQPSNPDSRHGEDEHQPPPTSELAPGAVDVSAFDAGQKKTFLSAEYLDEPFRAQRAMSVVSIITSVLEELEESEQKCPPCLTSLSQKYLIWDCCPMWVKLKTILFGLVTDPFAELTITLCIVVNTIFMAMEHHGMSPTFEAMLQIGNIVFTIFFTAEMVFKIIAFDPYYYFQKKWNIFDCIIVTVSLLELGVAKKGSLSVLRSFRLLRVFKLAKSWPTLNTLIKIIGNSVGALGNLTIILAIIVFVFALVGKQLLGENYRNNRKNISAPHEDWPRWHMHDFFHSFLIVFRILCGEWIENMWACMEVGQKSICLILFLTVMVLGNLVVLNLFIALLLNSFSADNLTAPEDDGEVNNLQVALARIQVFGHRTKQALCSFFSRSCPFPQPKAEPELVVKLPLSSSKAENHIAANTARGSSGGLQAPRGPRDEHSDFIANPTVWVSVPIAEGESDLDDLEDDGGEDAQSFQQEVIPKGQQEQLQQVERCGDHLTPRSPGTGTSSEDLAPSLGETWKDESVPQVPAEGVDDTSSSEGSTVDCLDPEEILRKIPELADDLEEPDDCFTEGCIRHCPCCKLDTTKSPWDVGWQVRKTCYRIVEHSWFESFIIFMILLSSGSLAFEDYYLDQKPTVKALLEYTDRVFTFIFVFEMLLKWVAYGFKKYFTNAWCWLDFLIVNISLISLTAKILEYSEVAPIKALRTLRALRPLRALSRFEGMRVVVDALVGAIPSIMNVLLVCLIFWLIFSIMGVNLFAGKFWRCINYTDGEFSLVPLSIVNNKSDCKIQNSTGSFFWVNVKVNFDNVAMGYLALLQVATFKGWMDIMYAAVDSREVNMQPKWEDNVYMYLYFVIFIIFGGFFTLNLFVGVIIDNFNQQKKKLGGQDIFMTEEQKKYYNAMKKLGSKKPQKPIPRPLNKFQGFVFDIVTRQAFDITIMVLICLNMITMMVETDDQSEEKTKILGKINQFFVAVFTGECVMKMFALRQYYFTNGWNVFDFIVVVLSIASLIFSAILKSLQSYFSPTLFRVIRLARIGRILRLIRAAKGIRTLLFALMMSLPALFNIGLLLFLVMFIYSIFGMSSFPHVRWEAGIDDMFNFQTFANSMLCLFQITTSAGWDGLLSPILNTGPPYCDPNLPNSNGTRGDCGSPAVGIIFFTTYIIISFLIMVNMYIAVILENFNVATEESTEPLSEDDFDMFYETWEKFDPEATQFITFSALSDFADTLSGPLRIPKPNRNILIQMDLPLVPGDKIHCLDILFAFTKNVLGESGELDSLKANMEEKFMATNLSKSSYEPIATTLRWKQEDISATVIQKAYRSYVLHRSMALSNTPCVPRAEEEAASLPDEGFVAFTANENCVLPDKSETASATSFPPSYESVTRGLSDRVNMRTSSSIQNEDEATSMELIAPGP

In general, inhibition refers to the percentage by which the read-out fell short of the control. As for `COc1c([C@@H]2C[C@](C)(C(F)(F)F)S[C@H]2C(=O)Nc2ccnc(SCN)c2)ccc(F)c1F` [a-51-A, (2R,3S,5R)-N-(2-aminomethylthio-4-pyridyl)-3-(3,4-difluoro-2-methoxy-phenyl)-5-methyl-5-(trifluoromethyl)tetrahydrothiophene-2-carboxamide], the inhibition at 0.001 µM (concentration of 1 nM) is 88.5%.
With `COc1c(C2CC(C)(C(F)(F)F)SC2C(=O)Nc2ccc(F)c(S(C)(=N)=O)c2)ccc(F)c1F` (stereo not shown) [Compound 227, 3-(3,4-difluoro-2-methoxyphenyl)-N-(4-fluoro-3-(S-methylsulfonimidoyl)phenyl)-5-methyl-5-(trifluoromethyl)tetrahydrothiophene-2-carboxamide], the inhibition at 0.01 µM came to 97.7%.
Molecule `COc1c(C2CC(C)(C(F)(F)F)SC2C(=O)Nc2ccc(F)c(N=S(C)(C)=O)c2)ccc(F)c1F` (stereo not shown) [a-22, 3-(3,4-difluoro-2-methoxyphenyl)-N-(3-((dimethyl(oxo)-16-sulfonamido)amino)-4-fluorophenyl)-5-methyl-5-(trifluoromethyl)tetrahydrothiophene-2-carboxamide] returned an Inhibition rate (%) (concentration of 1 nM, 0.001 µM) of 80.7%.
`COc1c([C@@H]2C[C@](C)(C(F)(F)F)S[C@H]2C(=O)Nc2ccc(F)c(/C=C(\C#N)C(N)=O)c2)ccc(F)c1F` [a-89-A, (2R,3S,5R)-N-(3-((E)-3-amino-2-cyano-3-oxopropen-1-yl)-4-fluorophenyl)-3-(3,4-difluoro-2-methoxyphenyl)-5-methyl-5-(trifluoromethyl)tetrahydrothiophene-2-carboxamide]: the inhibition at 0.001 µM (concentration of 1 nM) is 51.5%.
`COc1c([C@@H]2C[C@](C)(C(F)(F)F)S[C@H]2C(=O)Nc2ccc(=O)[nH]n2)ccc(F)c1F` [a-3-A, (2R,3S,5R)-3-(3,4-difluoro-2-methoxyphenyl)-5-methyl-N-(6-oxo-1,6-dihydropyridazin-3-yl)-5-(trifluoromethyl)tetrahydrothiophene-2-carboxamide]: the inhibition at 0.01 µM turned out to be 80.2%.
The same measure, in the same setting: the figure for `COc1c([C@@H]2C[C@](C)(C(F)(F)F)S[C@H]2C(=O)Nc2ccc(F)c(C(N)=O)c2)ccc(F)c1F` [Compound 146-A, (2R,3S,5R)-N-(3-carbamoyl-4-fluorophenyl)-3-(3,4-difluoro-2-methoxyphenyl)-5-methyl-5-(trifluoromethyl)tetrahydrothiophene-2-carboxamide] is 98.3%.
By IC50 is commonly meant the concentration needed to halve the response being measured. Regarding `COc1c([C@@H]2C[C@](C)(C(F)(F)F)S[C@H]2C(=O)Nc2cccc(B3OC(=O)CN(C)CC(=O)O3)c2)ccc(F)c1F` [a-35-A, (2R,3S,5R)-3-(3,4-difluoro-2-methoxyphenyl)-5-methyl-N-(3-(6-methyl-4,8-dioxo-1,3,6,2-diazaborinin-2-yl)phenyl)-5-(trifluoromethyl)tetrahydrothiophene-2-carboxamide], the IC50 came to 0.69 nM.
`COc1c(C2CC(C)(C(F)(F)F)SC2C(=O)Nc2ccc(B(O)O)cc2)ccc(F)c1F` (stereo not shown) [Compound 82, (4-(3-(3,4-difluoro-2-methoxyphenyl)-5-methyl-5-(trifluoromethyl)tetrahydrothiophene-2-carboxamido)phenyl)boronic acid]: the inhibition at 0.01 µM stood at 81.1%.
Same read-out and setting: the figure for `COc1c([C@@H]2C[C@](C)(C(F)(F)F)S[C@H]2C(=O)Nc2cccc(C3N=N3)c2)ccc(F)c1F` [a-41-A, (2R,3S,5R)-N-(3-(3H-diazirin-3-yl)phenyl)-3-(3,4-difluoro-2-methoxyphenyl)-5-methyl-5-(trifluoromethyl)tetrahydrothiophene-2-carboxamide] is 80.6%; for `COc1c(C2CC(C)(C(F)(F)F)SC2C(=O)Nc2ccc3c(c2)COB3O)ccc(F)c1F` (stereo not shown) [Compound 219, 3-(3,4-difluoro-2-methoxyphenyl)-N-(1-hydroxy-1,3-dihydrobenzo[c][1,2]oxaborol-5-yl)-5-methyl-5-(trifluoromethyl)tetrahydrothiophene-2-carboxamide] it is 88%.
For the molecule `COc1c([C@@H]2C[C@](C)(C(F)(F)F)S[C@H]2C(=O)Nc2ccc([S+](C)[O-])nc2)ccc(F)c1F` (stereo partly drawn) [Compound 238-A, (2R,3S,5R)-3-(3,4-difluoro-2-methoxyphenyl)-5-methyl-N-(6-(methylsulfinyl)pyridin-3-yl)-5-(trifluoromethyl)tetrahydrothiophene-2-carboxamide], the inhibition at 0.001 µM (concentration of 1 nM) turned out to be 85.5%.
The same measure, in the same setting: the figure for `CNC(=O)c1cc(NC(=O)[C@@H]2S[C@@](C)(C(F)(F)F)C[C@H]2c2ccc(F)c(F)c2OC)ccn1` [Compound 253-A, 4-((2R,3S,5R)-3-(3,4-difluoro-2-methoxyphenyl)-5-methyl-5-(trifluoromethyl)tetrahydrothiophene-2-carboxamido)-N-methylpicolinamide] is 68.6%.
As for `COc1c([C@@H]2C[C@](C)(C(F)(F)F)S[C@H]2C(=O)Nc2ccc(SC)nc2)ccc(F)c1F` [Compound 231-A, (2R,3S,5R)-3-(3,4-difluoro-2-methoxyphenyl)-5-methyl-N-(6-(methylthio)pyridin-3-yl)-5-(trifluoromethyl)tetrahydrothiophene-2-carboxamide], the inhibition at 0.01 µM came to 83.7%.
As for `[2H][C@@]1(C(=O)Nc2csc(B(O)O)c2)S[C@@](C)(C(F)(F)F)C[C@H]1c1ccc(F)c(F)c1OC` [Compound 50-A, (4-((2R,3S,5R)-3-(3,4-difluoro-2-methoxyphenyl)-5-methyl-5-(trifluoromethyl)tetrahydrothiophene-2-carboxamido-2-d)thiophen-2-yl)boronic acid], the inhibition at 0.01 µM was 80.9%.
Regarding `COc1c([C@@H]2C[C@](C)(C(F)(F)F)S[C@H]2C(=O)Nc2cnnc(N=[N+]=[N-])c2)ccc(F)c1F` [a-30-A, (2R,3S,5R)-(4-(3-(3,4-difluoro-2-methoxyphenyl)-5-methyl-5-(trifluoromethyl)tetrahydrothiophene-2-carboxamido)-6-azido)pyridazine], under “concentration of 1 nM”, the inhibition at 0.001 µM came out at 74.5%.
As to `COc1c(C2CC(C)(C(F)(F)F)SC2C(=O)Nc2ccnc(S(C)(=O)=O)c2)ccc(F)c1F` (stereo not shown) [Compound 192, (4-(3-(3,4-difluoro-2-methoxyphenyl)-5-methyl-5-(trifluoromethyl)tetrahydrothiophene-2-carboxamido)-2-methylsulfonyl)pyridine], the inhibition at 0.01 µM came to 96.4%.
Regarding `[2H]C1(C(=O)Nc2ccc(F)c(B(O)O)c2)SC(C)(C(F)(F)F)CC1c1ccc(F)c(F)c1OC` (stereo not shown) [Compound 20-A, (5-(3-(3,4-difluoro-2-methoxyphenyl)-5-methyl-5-(trifluoromethyl)tetrahydrothiophene-2-carboxamido-2-d)-2-fluorophenyl)boronic acid], the inhibition at 0.01 µM is 87.9%.
On the same count and under the same terms, the figure for `COc1c(C2CC(C)(C(F)(F)F)SC2C(=O)Nc2cccc(NS(=O)(=O)CCN)c2)ccc(F)c1F` (stereo not shown) [a-25, N-(3-((2-aminoethyl)sulfonamido)phenyl)-3-(3,4-difluoro-2-methoxyphenyl)-5-methyl-5-(trifluoromethyl)tetrahydrothiophene-2-carboxamide] is 96.5%; for `COc1c(C2CC(C)(C(F)(F)F)SC2C(=O)Nc2cccc(B(O)O)c2)ccc(F)c1F` (stereo not shown) [Compound 9, (3-(3-(3,4-difluoro-2-methoxyphenyl)-5-methyl-5-(trifluoromethyl)tetrahydrothiophene-2-carboxamido)phenyl)boronic acid] it is 84.9%.
In the case of `COc1c([C@@H]2C[C@](C)(C(F)(F)F)S[C@H]2C(=O)Nc2nn(S(=O)(=O)C(F)(F)F)cc2C)ccc(F)c1F` [a-43-A, (2R,3S,5R)-3-(3,4-difluoro-2-methoxyphenyl)-5-methyl-N-(4-methyl-1-((trifluoromethyl)sulfonyl)-1H-pyrazol-3-yl)-5-(trifluoromethane)tetrahydrothiophene-2-carboxamide], the inhibition at 0.001 µM (concentration of 1 nM) worked out at 40.1%.
With `COc1c([C@@H]2C[C@](C)(C(F)(F)F)S[C@H]2C(=O)Nc2ccc3c(c2)B(O)OC3=O)ccc(F)c1F` [a-6-A, (2R,3S,5R)-3-(3,4-difluoro-2-methoxyphenyl)-N-(1-hydroxy-3-oxo-1,3-dihydrobenzo[c][1,2]oxaborol-6-yl)-5-methyl-5-(trifluoromethyl)tetrahydrothiophene-2-carboxamide], the inhibition at 0.01 µM is 76.9%.
Regarding `COc1c([C@@H]2C[C@](C)(C(F)(F)F)S[C@H]2C(=O)Nc2ccc3c(c2)C(=O)NC3=O)ccc(F)c1F` [a-23-A, (2R,3S,5R)-3-(3,4-difluoro-2-methoxyphenyl)-N-(1,3-dioxoisoindol-5-yl)-5-methyl-5-(trifluoromethyl)tetrahydrothiophene-2-carboxamide], the inhibition at 0.001 µM (concentration of 1 nM) was found to be 56.5%.
